Assay results: ChEMBL document CHEMBL6177996 (J Med Chem, 2025)
Converted amounts (≈) assume the structure as drawn.

Experiment: physchem
Settings: water

- solubility: 166 µg/mL (≈ 324 µM)
SMILES: C=CC(=O)NCc1cc(C(=O)NCc2c(SC)cc(C)[nH]c2=O)c(C)c(N(CC)C2CCOCC2)c1
